Measurements reported in ChEMBL document CHEMBL3400097, “Effect of arginine methylation on the RNA recognition and cellular uptake of Tat-derived peptides” (Bioorg Med Chem, 2015).

Columns and labels:
Jurkat = assay: Cytotoxicity against human Jurkat cells assessed as cell viability at 120 uM after 4 hrs by WST-1 assay; assay type: cell-based
Nucleic Acid = assay: Binding affinity to HIV TAR RNA by electrophoretic mobility shift assay in presence of Escherichia coli tRNA; assay type: nucleic-acid assay, Human immunodeficiency virus

## CC(=O)N[C@@H](Cc1ccc(O)cc1)C(=O)NCC(=O)N[C@@H](CCCNC(=N)N)C(=O)N[C@@H](CCCCN)C(=O)N[C@@H](CCCCN)C(=O)N[C@@H](CCCNC(=N)N)C(=O)N[C@@H](CCCNC(=N)N)C(=O)N[C@@H](CCC(N)=O)C(=O)N[C@@H](CCCNC(=N)N)C(=O)N[C@@H](CCCNC(=N)N)C(=O)N[C@@H](CCCNC(=N)N)C(N)=O
Jurkat
  Activity: Non-toxic
Nucleic Acid
  Kd: 260 nM

## CNC(=N)NCCC[C@H](NC(=O)CNC(=O)[C@H](Cc1ccc(O)cc1)NC(C)=O)C(=O)N[C@@H](CCCCN)C(=O)N[C@@H](CCCCN)C(=O)N[C@@H](CCCNC(=N)N)C(=O)N[C@@H](CCCNC(=N)N)C(=O)N[C@@H](CCC(N)=O)C(=O)N[C@@H](CCCNC(=N)N)C(=O)N[C@@H](CCCNC(=N)N)C(=O)N[C@@H](CCCNC(=N)N)C(N)=O
Jurkat
  Activity: Non-toxic
Nucleic Acid
  Kd: 285 nM

## CNC(=N)NCCC[C@H](NC(=O)[C@H](CCCCN)NC(=O)[C@H](CCCCN)NC(=O)[C@H](CCCNC(=N)N)NC(=O)CNC(=O)[C@H](Cc1ccc(O)cc1)NC(C)=O)C(=O)N[C@@H](CCCNC(=N)N)C(=O)N[C@@H](CCC(N)=O)C(=O)N[C@@H](CCCNC(=N)N)C(=O)N[C@@H](CCCNC(=N)N)C(=O)N[C@@H](CCCNC(=N)N)C(N)=O
Jurkat
  Activity: Non-toxic
Nucleic Acid
  Kd: 310 nM

## CNC(=N)NCCC[C@H](NC(=O)[C@H](CCCNC(=N)N)NC(=O)[C@H](CCCCN)NC(=O)[C@H](CCCCN)NC(=O)[C@H](CCCNC(=N)N)NC(=O)CNC(=O)[C@H](Cc1ccc(O)cc1)NC(C)=O)C(=O)N[C@@H](CCC(N)=O)C(=O)N[C@@H](CCCNC(=N)N)C(=O)N[C@@H](CCCNC(=N)N)C(=O)N[C@@H](CCCNC(=N)N)C(N)=O
Jurkat
  Activity: Non-toxic
Nucleic Acid
  Kd: 383 nM

## CNC(=N)NCCC[C@H](NC(=O)[C@H](CCC(N)=O)NC(=O)[C@H](CCCNC(=N)N)NC(=O)[C@H](CCCNC(=N)N)NC(=O)[C@H](CCCCN)NC(=O)[C@H](CCCCN)NC(=O)[C@H](CCCNC(=N)N)NC(=O)CNC(=O)[C@H](Cc1ccc(O)cc1)NC(C)=O)C(=O)N[C@@H](CCCNC(=N)N)C(=O)N[C@@H](CCCNC(=N)N)C(N)=O
Jurkat
  Activity: Non-toxic
Nucleic Acid
  Kd: 380 nM

## CNC(=N)NCCC[C@H](NC(=O)[C@H](CCCNC(=N)N)NC(=O)[C@H](CCC(N)=O)NC(=O)[C@H](CCCNC(=N)N)NC(=O)[C@H](CCCNC(=N)N)NC(=O)[C@H](CCCCN)NC(=O)[C@H](CCCCN)NC(=O)[C@H](CCCNC(=N)N)NC(=O)CNC(=O)[C@H](Cc1ccc(O)cc1)NC(C)=O)C(=O)N[C@@H](CCCNC(=N)N)C(N)=O
Jurkat
  Activity: Non-toxic
Nucleic Acid
  Kd: 219 nM

## CNC(=N)NCCC[C@H](NC(=O)[C@H](CCCNC(=N)N)NC(=O)[C@H](CCCNC(=N)N)NC(=O)[C@H](CCC(N)=O)NC(=O)[C@H](CCCNC(=N)N)NC(=O)[C@H](CCCNC(=N)N)NC(=O)[C@H](CCCCN)NC(=O)[C@H](CCCCN)NC(=O)[C@H](CCCNC(=N)N)NC(=O)CNC(=O)[C@H](Cc1ccc(O)cc1)NC(C)=O)C(N)=O
Jurkat
  Activity: Non-toxic
Nucleic Acid
  Kd: 197 nM

## CC(=O)N[C@@H](Cc1ccc(O)cc1)C(=O)NCC(=O)N[C@@H](CCCNC(=N)N(C)C)C(=O)N[C@@H](CCCCN)C(=O)N[C@@H](CCCCN)C(=O)N[C@@H](CCCNC(=N)N)C(=O)N[C@@H](CCCNC(=N)N)C(=O)N[C@@H](CCC(N)=O)C(=O)N[C@@H](CCCNC(=N)N)C(=O)N[C@@H](CCCNC(=N)N)C(=O)N[C@@H](CCCNC(=N)N)C(N)=O
Jurkat
  Activity: Non-toxic
Nucleic Acid
  Kd: 279 nM

## CC(=O)N[C@@H](Cc1ccc(O)cc1)C(=O)NCC(=O)N[C@@H](CCCNC(=N)N)C(=O)N[C@@H](CCCCN)C(=O)N[C@@H](CCCCN)C(=O)N[C@@H](CCCNC(=N)N(C)C)C(=O)N[C@@H](CCCNC(=N)N)C(=O)N[C@@H](CCC(N)=O)C(=O)N[C@@H](CCCNC(=N)N)C(=O)N[C@@H](CCCNC(=N)N)C(=O)N[C@@H](CCCNC(=N)N)C(N)=O
Jurkat
  Activity: Non-toxic
Nucleic Acid
  Kd: 385 nM

## CC(=O)N[C@@H](Cc1ccc(O)cc1)C(=O)NCC(=O)N[C@@H](CCCNC(=N)N)C(=O)N[C@@H](CCCCN)C(=O)N[C@@H](CCCCN)C(=O)N[C@@H](CCCNC(=N)N)C(=O)N[C@@H](CCCNC(=N)N(C)C)C(=O)N[C@@H](CCC(N)=O)C(=O)N[C@@H](CCCNC(=N)N)C(=O)N[C@@H](CCCNC(=N)N)C(=O)N[C@@H](CCCNC(=N)N)C(N)=O
Jurkat
  Activity: Non-toxic
Nucleic Acid
  Kd: 881 nM

## CC(=O)N[C@@H](Cc1ccc(O)cc1)C(=O)NCC(=O)N[C@@H](CCCNC(=N)N)C(=O)N[C@@H](CCCCN)C(=O)N[C@@H](CCCCN)C(=O)N[C@@H](CCCNC(=N)N)C(=O)N[C@@H](CCCNC(=N)N)C(=O)N[C@@H](CCC(N)=O)C(=O)N[C@@H](CCCNC(=N)N(C)C)C(=O)N[C@@H](CCCNC(=N)N)C(=O)N[C@@H](CCCNC(=N)N)C(N)=O
Jurkat
  Activity: Non-toxic
Nucleic Acid
  Kd: 398 nM

## CC(=O)N[C@@H](Cc1ccc(O)cc1)C(=O)NCC(=O)N[C@@H](CCCNC(=N)N)C(=O)N[C@@H](CCCCN)C(=O)N[C@@H](CCCCN)C(=O)N[C@@H](CCCNC(=N)N)C(=O)N[C@@H](CCCNC(=N)N)C(=O)N[C@@H](CCC(N)=O)C(=O)N[C@@H](CCCNC(=N)N)C(=O)N[C@@H](CCCNC(=N)N(C)C)C(=O)N[C@@H](CCCNC(=N)N)C(N)=O
Jurkat
  Activity: Non-toxic
Nucleic Acid
  Kd: 404 nM

## CC(=O)N[C@@H](Cc1ccc(O)cc1)C(=O)NCC(=O)N[C@@H](CCCNC(=N)N)C(=O)N[C@@H](CCCCN)C(=O)N[C@@H](CCCCN)C(=O)N[C@@H](CCCNC(=N)N)C(=O)N[C@@H](CCCNC(=N)N)C(=O)N[C@@H](CCC(N)=O)C(=O)N[C@@H](CCCNC(=N)N)C(=O)N[C@@H](CCCNC(=N)N)C(=O)N[C@@H](CCCNC(=N)N(C)C)C(N)=O
Jurkat
  Activity: Non-toxic
Nucleic Acid
  Kd: 277 nM

## C/N=C(\NC)NCCC[C@H](NC(=O)CNC(=O)[C@H](Cc1ccc(O)cc1)NC(C)=O)C(=O)N[C@@H](CCCCN)C(=O)N[C@@H](CCCCN)C(=O)N[C@@H](CCCNC(=N)N)C(=O)N[C@@H](CCCNC(=N)N)C(=O)N[C@@H](CCC(N)=O)C(=O)N[C@@H](CCCNC(=N)N)C(=O)N[C@@H](CCCNC(=N)N)C(=O)N[C@@H](CCCNC(=N)N)C(N)=O
Jurkat
  Activity: Non-toxic
Nucleic Acid
  Kd: 219 nM

## C/N=C(\NC)NCCC[C@H](NC(=O)[C@H](CCCCN)NC(=O)[C@H](CCCCN)NC(=O)[C@H](CCCNC(=N)N)NC(=O)CNC(=O)[C@H](Cc1ccc(O)cc1)NC(C)=O)C(=O)N[C@@H](CCCNC(=N)N)C(=O)N[C@@H](CCC(N)=O)C(=O)N[C@@H](CCCNC(=N)N)C(=O)N[C@@H](CCCNC(=N)N)C(=O)N[C@@H](CCCNC(=N)N)C(N)=O
Jurkat
  Activity: Non-toxic
Nucleic Acid
  Kd: 328 nM

## C/N=C(\NC)NCCC[C@H](NC(=O)[C@H](CCCNC(=N)N)NC(=O)[C@H](CCCCN)NC(=O)[C@H](CCCCN)NC(=O)[C@H](CCCNC(=N)N)NC(=O)CNC(=O)[C@H](Cc1ccc(O)cc1)NC(C)=O)C(=O)N[C@@H](CCC(N)=O)C(=O)N[C@@H](CCCNC(=N)N)C(=O)N[C@@H](CCCNC(=N)N)C(=O)N[C@@H](CCCNC(=N)N)C(N)=O
Jurkat
  Activity: Non-toxic
Nucleic Acid
  Kd: 576 nM

## C/N=C(\NC)NCCC[C@H](NC(=O)[C@H](CCC(N)=O)NC(=O)[C@H](CCCNC(=N)N)NC(=O)[C@H](CCCNC(=N)N)NC(=O)[C@H](CCCCN)NC(=O)[C@H](CCCCN)NC(=O)[C@H](CCCNC(=N)N)NC(=O)CNC(=O)[C@H](Cc1ccc(O)cc1)NC(C)=O)C(=O)N[C@@H](CCCNC(=N)N)C(=O)N[C@@H](CCCNC(=N)N)C(N)=O
Jurkat
  Activity: Non-toxic
Nucleic Acid
  Kd: 527 nM
